Data published in ChEMBL document CHEMBL1201862, “PubChem BioAssay data set” (2004).
Activity calls are given as the source filed them.

Assays:
[1] = target: Eukaryotic translation initiation factor 4E (Mus musculus, UniProt P63073); assay: eIF4E–eIF4G protein interaction inhibitors, dose response, biochemical, TR-FRET (AID 855); type: functional;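 further: potency for disrupting eIF4E binding to eIF4GI seen as loss of FRET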
[2] = A cytotoxicity screen of small molecule inhibitors of the PhoP region in Salmonella typhi identified in the primary screen. [Related pubchem assays: 1850, 1864, 1985 ]; type: functional
[3] = target: Voltage-dependent T-type calcium channel subunit alpha-1H (Homo sapiens, UniProt O95180); type: functional;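 further: channel activity triggered by adding a high calcium stimulation buffer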
Aminopeptidase N = target: T1, Aminopeptidase N (Plasmodium falciparum FcB1/Columbia, UniProt O96935); assay: P. falciparum M1AAP inhibitors, biochemical, fluorogenic H-Leu-NHMec substrate, 1536-well (AID 1445); parameters: species or system Plasmodium falciparum 3D7, 3D7
T1 sequence (O96935 whole entry): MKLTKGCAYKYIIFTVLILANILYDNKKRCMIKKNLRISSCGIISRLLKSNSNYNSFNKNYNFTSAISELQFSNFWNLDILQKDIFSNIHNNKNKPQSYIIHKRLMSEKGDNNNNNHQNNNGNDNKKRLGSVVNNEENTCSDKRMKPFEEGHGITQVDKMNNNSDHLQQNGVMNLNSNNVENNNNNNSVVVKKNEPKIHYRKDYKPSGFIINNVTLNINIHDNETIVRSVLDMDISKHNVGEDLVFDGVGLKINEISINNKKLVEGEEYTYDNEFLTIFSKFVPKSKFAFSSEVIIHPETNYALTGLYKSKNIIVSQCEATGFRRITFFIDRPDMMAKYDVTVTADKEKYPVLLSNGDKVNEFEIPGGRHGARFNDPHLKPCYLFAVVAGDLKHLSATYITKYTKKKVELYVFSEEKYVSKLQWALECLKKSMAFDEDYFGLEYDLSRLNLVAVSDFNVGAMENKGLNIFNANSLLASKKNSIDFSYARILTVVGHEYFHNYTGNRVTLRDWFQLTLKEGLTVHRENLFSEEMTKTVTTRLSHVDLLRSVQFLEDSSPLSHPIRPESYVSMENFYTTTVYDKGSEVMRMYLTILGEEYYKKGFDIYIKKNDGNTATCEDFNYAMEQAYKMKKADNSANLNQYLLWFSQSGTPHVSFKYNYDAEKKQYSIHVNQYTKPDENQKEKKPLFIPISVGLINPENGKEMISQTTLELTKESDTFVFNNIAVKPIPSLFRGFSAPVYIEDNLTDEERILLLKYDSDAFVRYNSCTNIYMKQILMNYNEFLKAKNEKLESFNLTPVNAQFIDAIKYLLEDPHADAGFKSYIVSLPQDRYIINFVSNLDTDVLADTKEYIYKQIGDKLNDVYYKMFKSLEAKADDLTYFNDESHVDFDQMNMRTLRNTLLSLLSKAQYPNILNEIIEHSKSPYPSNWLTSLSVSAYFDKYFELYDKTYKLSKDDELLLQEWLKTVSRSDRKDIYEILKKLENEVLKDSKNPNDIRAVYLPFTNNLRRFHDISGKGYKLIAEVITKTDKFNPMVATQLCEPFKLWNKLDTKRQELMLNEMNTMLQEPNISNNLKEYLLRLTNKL

[4] = target: T2, Corticotropin-releasing factor receptor 2/Corticotropin-releasing factor-binding protein (Homo sapiens, UniProt P24387+Q13324); assay: Dose Response confirmation of uHTS hits for small molecule antagonists of the CRF-binding protein and CRF-R2 receptor complex.; type: functional; details: read-out: IC50_Mean
T2 sequence (Q13324 whole entry): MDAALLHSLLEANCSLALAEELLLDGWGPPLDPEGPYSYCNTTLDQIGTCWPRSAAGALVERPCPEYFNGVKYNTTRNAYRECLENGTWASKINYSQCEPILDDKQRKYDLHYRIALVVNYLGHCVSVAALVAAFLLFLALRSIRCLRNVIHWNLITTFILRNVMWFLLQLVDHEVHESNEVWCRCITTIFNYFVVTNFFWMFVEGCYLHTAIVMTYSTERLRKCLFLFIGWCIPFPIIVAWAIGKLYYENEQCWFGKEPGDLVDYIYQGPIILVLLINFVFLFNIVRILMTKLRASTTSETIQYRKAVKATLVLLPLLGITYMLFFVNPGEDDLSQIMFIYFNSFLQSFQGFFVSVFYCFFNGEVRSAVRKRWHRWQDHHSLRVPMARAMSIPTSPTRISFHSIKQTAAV
T2 sequence (P24387 whole entry): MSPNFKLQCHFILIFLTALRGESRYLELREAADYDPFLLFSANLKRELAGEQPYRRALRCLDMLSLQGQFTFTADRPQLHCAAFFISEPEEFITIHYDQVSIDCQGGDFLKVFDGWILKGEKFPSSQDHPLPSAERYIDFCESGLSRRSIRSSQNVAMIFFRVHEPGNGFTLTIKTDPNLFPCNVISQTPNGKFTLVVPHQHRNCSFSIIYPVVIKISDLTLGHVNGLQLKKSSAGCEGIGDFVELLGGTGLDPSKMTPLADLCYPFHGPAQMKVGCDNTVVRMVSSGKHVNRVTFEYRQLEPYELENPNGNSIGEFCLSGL

[5] = target: T2, Corticotropin-releasing factor receptor 2/Corticotropin-releasing factor-binding protein; assay: activators of CRF receptor 2 with binding protein – uHTS hits, confirmation (AID 602473); type: functional; details: read-out: EC50_Mean
Kallikrein-7 = Kallikrein-7 (Homo sapiens, UniProt P49862); assay: Fluorescence Intensity-based biochemical primary high throughput dose response assay to identify activators of kallikrein-7 (K7) zymogen.
Cytochrome P450 3A4 = Cytochrome P450 3A4 (Homo sapiens, UniProt P08684); details: Potency;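 further: confirmatory qHTS run detecting inhibitors and substrates of CYP3A4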
[6] = CRF-BP/CRF-R2 complex antagonists, dose response, cell-based, uHTS hits, 384-well (AID 651639); type: functional, Homo sapiens; details: read-out: IC50_Mean
[7] = growth suppression of PTEN-null colon cells, dose response, cell-based, HCT116 PTEN knockout (AID 1047); type: functional;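 further: HCT116 colon tumor cells with PTEN knocked out; cells exposed to compound for 60 hours before readout; potency for loss of cell viability measured by luminescence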
[8] = growth suppression of beta-catenin-knockout colon cells, dose response, cell-based, HCT116, human colon tumor (AID 1045); type: functional;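 further: HCT116 colon tumor cells with beta catenin knocked out; cells exposed to compound for 60 hours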

Chain of Eukaryotic translation initiation factor 4E (P63073 whole entry): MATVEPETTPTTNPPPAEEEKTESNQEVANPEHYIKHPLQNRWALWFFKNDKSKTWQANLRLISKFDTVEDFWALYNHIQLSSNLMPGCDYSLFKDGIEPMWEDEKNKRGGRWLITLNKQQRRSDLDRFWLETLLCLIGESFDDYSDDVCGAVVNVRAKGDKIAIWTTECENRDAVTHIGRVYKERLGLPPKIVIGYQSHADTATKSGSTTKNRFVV
Chain of Voltage-dependent T-type calcium channel subunit alpha-1H (O95180 whole entry): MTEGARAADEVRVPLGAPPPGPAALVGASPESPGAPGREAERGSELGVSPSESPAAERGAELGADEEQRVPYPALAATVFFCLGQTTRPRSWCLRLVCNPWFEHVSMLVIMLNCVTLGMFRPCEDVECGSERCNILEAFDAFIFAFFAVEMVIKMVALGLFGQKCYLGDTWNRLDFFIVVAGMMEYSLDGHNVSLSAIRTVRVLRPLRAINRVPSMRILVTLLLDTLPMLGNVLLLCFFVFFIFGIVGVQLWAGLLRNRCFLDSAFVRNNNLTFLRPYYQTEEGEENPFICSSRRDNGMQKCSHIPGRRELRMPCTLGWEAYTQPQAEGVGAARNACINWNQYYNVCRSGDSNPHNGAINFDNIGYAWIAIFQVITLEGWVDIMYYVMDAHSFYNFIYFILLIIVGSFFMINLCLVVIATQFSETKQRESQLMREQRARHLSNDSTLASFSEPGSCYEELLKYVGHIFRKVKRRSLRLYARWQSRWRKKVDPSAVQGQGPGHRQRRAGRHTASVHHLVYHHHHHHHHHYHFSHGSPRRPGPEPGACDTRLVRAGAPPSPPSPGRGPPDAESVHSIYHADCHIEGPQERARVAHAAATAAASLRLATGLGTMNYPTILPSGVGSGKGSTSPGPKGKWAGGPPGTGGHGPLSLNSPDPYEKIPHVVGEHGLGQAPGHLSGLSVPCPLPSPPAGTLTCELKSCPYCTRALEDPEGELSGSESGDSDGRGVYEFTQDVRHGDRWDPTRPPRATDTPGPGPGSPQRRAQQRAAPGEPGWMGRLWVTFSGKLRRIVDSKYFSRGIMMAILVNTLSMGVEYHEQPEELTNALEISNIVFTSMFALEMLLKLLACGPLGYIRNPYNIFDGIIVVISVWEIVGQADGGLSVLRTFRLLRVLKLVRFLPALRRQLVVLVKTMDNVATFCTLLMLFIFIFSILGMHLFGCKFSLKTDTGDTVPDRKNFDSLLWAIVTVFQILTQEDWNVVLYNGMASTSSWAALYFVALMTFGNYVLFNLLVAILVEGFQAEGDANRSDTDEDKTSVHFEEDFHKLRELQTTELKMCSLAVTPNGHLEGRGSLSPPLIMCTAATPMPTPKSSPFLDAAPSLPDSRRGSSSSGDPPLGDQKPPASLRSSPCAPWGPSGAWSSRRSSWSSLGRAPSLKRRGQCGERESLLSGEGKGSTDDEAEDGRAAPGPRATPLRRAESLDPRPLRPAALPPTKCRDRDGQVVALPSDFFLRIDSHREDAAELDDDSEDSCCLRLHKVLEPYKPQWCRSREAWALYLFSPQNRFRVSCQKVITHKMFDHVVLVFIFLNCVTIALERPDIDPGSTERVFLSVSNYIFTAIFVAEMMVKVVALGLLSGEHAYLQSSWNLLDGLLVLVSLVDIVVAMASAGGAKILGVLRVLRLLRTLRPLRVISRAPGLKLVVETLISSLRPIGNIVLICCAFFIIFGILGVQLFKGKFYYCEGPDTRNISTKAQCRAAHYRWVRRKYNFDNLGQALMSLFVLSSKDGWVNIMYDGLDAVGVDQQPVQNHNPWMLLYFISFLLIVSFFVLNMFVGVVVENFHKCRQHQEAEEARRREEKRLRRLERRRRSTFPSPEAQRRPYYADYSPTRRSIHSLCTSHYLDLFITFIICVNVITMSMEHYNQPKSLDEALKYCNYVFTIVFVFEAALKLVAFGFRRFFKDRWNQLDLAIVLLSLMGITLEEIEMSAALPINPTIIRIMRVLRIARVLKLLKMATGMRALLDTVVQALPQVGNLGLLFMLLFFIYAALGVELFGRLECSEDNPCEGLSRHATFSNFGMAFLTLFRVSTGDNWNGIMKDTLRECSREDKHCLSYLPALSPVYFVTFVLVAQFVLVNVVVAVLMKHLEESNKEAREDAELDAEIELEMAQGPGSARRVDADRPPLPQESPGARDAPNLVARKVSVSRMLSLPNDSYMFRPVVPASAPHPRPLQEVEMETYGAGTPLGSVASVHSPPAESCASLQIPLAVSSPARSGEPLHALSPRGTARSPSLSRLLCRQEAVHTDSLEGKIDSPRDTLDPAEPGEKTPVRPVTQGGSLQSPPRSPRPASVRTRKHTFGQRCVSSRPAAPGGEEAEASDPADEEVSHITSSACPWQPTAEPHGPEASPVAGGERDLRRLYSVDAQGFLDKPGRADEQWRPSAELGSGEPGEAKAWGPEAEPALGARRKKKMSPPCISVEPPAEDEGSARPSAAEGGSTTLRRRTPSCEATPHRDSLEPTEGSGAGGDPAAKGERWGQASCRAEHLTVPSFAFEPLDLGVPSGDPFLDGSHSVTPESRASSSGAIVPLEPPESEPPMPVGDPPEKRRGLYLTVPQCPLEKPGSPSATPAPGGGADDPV
Chain of Cytochrome P450 3A4 (P08684 whole entry): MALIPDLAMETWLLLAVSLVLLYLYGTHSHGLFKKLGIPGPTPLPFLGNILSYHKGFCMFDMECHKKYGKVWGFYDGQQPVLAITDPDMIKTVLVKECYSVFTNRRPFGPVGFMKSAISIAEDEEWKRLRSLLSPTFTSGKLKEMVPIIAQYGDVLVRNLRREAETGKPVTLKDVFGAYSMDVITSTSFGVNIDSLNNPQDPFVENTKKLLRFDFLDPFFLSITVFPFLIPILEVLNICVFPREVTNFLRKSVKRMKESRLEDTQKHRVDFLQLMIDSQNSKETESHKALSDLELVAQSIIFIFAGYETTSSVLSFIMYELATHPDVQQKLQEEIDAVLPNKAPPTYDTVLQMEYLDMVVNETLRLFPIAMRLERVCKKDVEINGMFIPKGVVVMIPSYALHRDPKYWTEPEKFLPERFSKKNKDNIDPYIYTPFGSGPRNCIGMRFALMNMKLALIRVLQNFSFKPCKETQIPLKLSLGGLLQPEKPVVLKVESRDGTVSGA
Chain of Kallikrein-7 (P49862 whole entry): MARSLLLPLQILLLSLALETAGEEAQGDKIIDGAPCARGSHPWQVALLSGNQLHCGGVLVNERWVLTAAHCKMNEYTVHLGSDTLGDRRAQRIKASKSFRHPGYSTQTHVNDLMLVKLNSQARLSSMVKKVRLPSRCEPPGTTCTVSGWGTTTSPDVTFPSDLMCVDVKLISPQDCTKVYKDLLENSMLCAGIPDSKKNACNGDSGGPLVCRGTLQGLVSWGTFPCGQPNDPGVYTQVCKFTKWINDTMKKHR

For Cc1cc(C)n(-c2nnc3n2N=C(c2ccccc2)CS3)n1, the IC50 [1] was > 64 µM (inactive).
With c1ccc2sc(N3CN(CCN4CCOCC4)CN(c4nc5ccccc5s4)C3)nc2c1 the EC50 [2] was > 50 µM (active) and the EC50 [3] was 5.23 µM (active).
With CC(=O)c1ccc(-c2cccs2)s1 the IC50 (Aminopeptidase N) was 40 µM (active), the IC50 [4] was > 47.1 µM (inactive) and the EC50 [5] was > 53 µM (inactive).
In the case of Cc1ccc(-c2nnn(C(C)C(=O)N3c4ccccc4CCc4ccccc43)n2)cc1 (stereo not given), the EC50 [3] is reported as 7.47 µM (active).
For CCCC(=O)Nc1c(-c2ccc(OC)cc2)c(=O)c2ccccc2n1C, the EC50 (Kallikrein-7) was 49.5 µM (inactive).
With CC1(C(=O)NCCN2CCOCC2)C=CCN1C(=O)c1ccccc1 (stereo not given) the AC50 (Cytochrome P450 3A4) was 25.1 µM (inconclusive).
For CC(C)N1C(=O)S/C(=C/c2ccccc2OCc2ccc(C(=O)O)cc2)C1=O, the IC50 (Aminopeptidase N) was 38.1 µM (active), the IC50 [4] was 25.5 µM (active) and the EC50 [5] was > 53 µM (inactive). For the same compound, the IC50 [6] was > 20 µM (inactive).
With COc1ccc(O)c(/C=C(\C#N)C(=O)Nc2cccnc2)c1 the IC50 [1] was > 64 µM (inactive).
In the case of CCN(CC)S(=O)(=O)c1cc(C(=O)Nc2ccc(Cl)cn2)ccc1C, the EC50 [3] is reported as 2.3 µM (active).
For Cc1ccc(-n2c(Cc3cccn3C)nnc2SCC(=O)Nc2ccc3c(c2)OCO3)cc1, the EC50 [3] was 1.25 µM (active).
In the case of CCOC(=O)c1c(CSC(=N)N)n(-c2ccc(Br)cc2)c2cc(Br)c(OC(C)=O)cc12, the EC50 [7] is reported as 16.1 µM (active), the EC50 [8] is reported as 14.3 µM (active) and the IC50 [1] is reported as > 64 µM (inactive).
With Cc1sc(NC(=O)Cn2nc(C(F)(F)F)cc2C)c(C(=O)OC(C)C)c1C the IC50 [1] was > 64 µM (inactive).
